The record followed here is patent US9000022B2 (Exelixis Patent Company LLC, priority 2005, dated 2015).

One assay relates to LXRα and/or LXRβ. Nature of the assay: Co-transfection assay (LXRE luciferase reporter, CV-1 cells). The assay is classed as cell-based, human. The note with it: read-out: activity (IC50 or EC50 for LXR), tested as described in Example 33, isoform not specified. An excerpt: To measure the ability of compounds to activate or inhibit the transcriptional activity of LXR in a cell based assay, the co-transfection assay was used. It has been shown that LXR functions as a heterodimer with RXR. For the co-transfection assay, expression plasmids for LXR and RXR are introduced via transient transfection into mammalian cells along with a luciferase reporter plasmid that contains one copy of a DNA sequence that is bound by LXR-RXR heterodimers (LXRE; Willy, P. et. al. 1995). Treatment of transfected cells with an LXR agonist increases the transcriptional activity of LXR, which is measured by an increase in luciferase activity.
CV-1 African Green Monkey Kidney Cells Co-transfection expression plasmids, comprising full-length LXRα (pCMX-h LXRα, LXRβ (pCMX-hLXRβ), or RXRα (pCMX-RXR), reporter plasmid (LXREx1-Tk-Luciferase), and control (pCMX-Galactosidase expression vector) (Willey et al. Genes & Development 9 1033-1045 (1995)). Transfection reagent such as FuGENE6 (Roche). 1× Cell lysis buffer (1% Triton X 100 (J T Baker X200-07), 10% Glycerol (J T Baker M778-07), 5 mM Ditriotreitol (Quantum Bioprobe DTT03; add fresh before lysing), 1 mM EGTA (Ethylene Glycol-bis(B-Amino ethyl ether)-N,N,N′,N′-Tetracetic Acid) (Sigma E-4378), 25 mM Tricine (ICN 807420) pH 7.8) 1× Luciferase assay buffer (pH at 7.8) (0.73 mM ATP, 22.3 mM Tricine, 0.11 mM EDTA, 33.3 mM DTT) 1× Luciferrin/CoA (11 mM Luciferin, 3.05 mM Coenzyme A, 10 mM HEPES)
CV-1 cells were prepared 24 hours prior to the experiment by plating them into T-175 flasks or 500 cm^2 dishes in order to achieve 70-80% confluency on the day of the transfection. The number of cells to be transfected was determined by the number of plates to be screened. Each 384 well plate requires 1.92×10^6 cells or 5000 cells per well. DNA Transfection Reagent was prepared by mixing the required plasmid DNAs with a cationic lipid transfection reagent FuGENE6 (Roche) by following the instructions provided with the reagents. Optimal DNA amounts were determined empirically per cell line and size of vessel to be transfected. 10-12 mL of media was added to the DNA Transfection Reagent and this mixture was added to the cells after aspirating media from the T175 cm^2 flask. Cells were then incubated at least 5 hours at 37° C. to prepare screening cells.
Luciferase assay reagent was prepared by combining before use (per 10 mL): 10 mL 1× Luciferase assay buffer; 0.54 mL of 1× Luciferrin/CoA; 0.54 mL of 0.2 M Magnesium sulfate
Assay plates were prepared by dispensing 5 μL, of compound per well of a 384 well plate to achieve final compound concentration of 10 μM and no more than 1% DMSO. Media was removed from the screening cells, the cells trypsinized, harvested cells by centrifugation, counted, and plated at a density of approximately 5000 cells per well in the 384 well assay plate prepared above in a volume of about 45 μL. Assay plates containing both compounds and screening cells (50 μL in total volume) were incubated for 20 hours at 37° C.
After incubation with compounds, media was removed from the cells and lysis buffer (30 μL/well) added. After 30 minutes at ambient temperature, luciferase assay buffer (30 μL/well) was added and the assay plates read on a luminometer (PE Biosystems Northstar reader with on-board injectors, or equivalent). Plates were read immediately after addition of luciferase assay buffer.
The LXR/LNRE co-transfection assay can be used to establish the EC50/IC50 values for potency and percent activity or inhibition for efficacy. Efficacy defines the activity of a compound relative to a high control ((N-(3-((4-fluorophenyl)-(naphthalene-2-sulfonyl)amino)propyl)-2,2-dimethylpropionamide)) or a low control (DMSO/vehicle). The dose response curves are generated from an 8 point curve with concentrations differing by ½ LOG units. Each point represents the average of 4 wells of data from a 384 well plate. […]
`CC(C)(O)c1cn(-c2ccc(-c3cccc(S(C)(=O)=O)c3)cc2)c(CCc2ccccc2Cl)n1` [Example 27, 2-(2-(2-chlorophenethyl)-1-(3′-(methylsulfonyl)biphenyl-4-yl)-1H-imidazol-4-yl)propan-2-ol]: the EC50 is under 1000 nM.

The same assay, now with this note: tested as described in Example 33; IC50 or EC50 for LXRα and/or LXRβ, isoform not specified; read-out: activity (IC50 or EC50 for LXR).
For `CS(=O)(=O)c1cccc(-c2ccc(-n3cc(C(=O)NCCF)nc3-c3c(Cl)cccc3Cl)cc2)c1` [Example 88, 2-(2,6-dichlorophenyl)-N-(2-fluoroethyl)-1-(3′-(methyl-sulfonyl)biphenyl-4-yl)-1H-imidazole-4-carboxamide], the IC50 or EC50 (potency, activation or inhibition) is under 1000 nM.
Still for that read-out and setting: the figure for `Cc1cc(-c2ccc(CO)c(S(C)(=O)=O)c2)ccc1-n1cc(C(C)(C)O)nc1-c1c(C)cccc1Cl` [Example 177] is under 1000 nM; for `CCS(=O)(=O)c1cc(-c2ccc(-n3cc(C(C)(C)O)nc3Cc3c(Cl)cccc3Cl)cc2)ccc1CO` [Example 8] it is under 1000 nM; for `Cc1cc(-c2cccc(S(C)(=O)=O)c2)ccc1-n1cc(C(C)(C)O)nc1-c1ccc(C)n1C` [Example 42, 2-(2-(1,5-dimethyl-1H-pyrrol-2-yl)-1-(3-methyl-3′-(methylsulfonyl)biphenyl-4-yl)-1H-imidazol-4-yl)propan-2-ol] it is under 1000 nM.
The same measure, in the same setting: with `C/C(=N\O)c1cn(-c2ccc(-c3cccc(S(C)(=O)=O)c3)cc2)c(-c2ccccc2Cl)n1` [Example 408, 1-{2-(2-chlorophenyl)-1-[3′-(methylsulfonyl)biphenyl-4-yl]-1H-imidazol-4-yl}ethanone oxime] the figure was under 1000 nM.
Still for that read-out and setting: the figure for `CCOC(=O)c1cn(-c2ccc(Br)cc2)c(-c2ccccc2C(F)(F)F)n1` [Example 366, ethyl 1-(4-bromophenyl)-2-[2-(trifluoromethyl)phenyl]-1H-imidazole-4-carboxylate] is 1000 to 10000 nM; for `CCS(=O)(=O)c1cccc(-c2ccc(-n3cc(C(=O)NCC(F)(F)F)nc3-c3c(Cl)cccc3Cl)c(C)c2)c1` [Example 104, 2-(2,6-dichlorophenyl)-1-(3′-(ethylsulfonyl)-3-methylbiphenyl-4-yl)-N-(2,2,2-trifluoroethyl)-1H-imidazole-4-carboxamide] it is under 1000 nM.
Consider `CC(C)(O)c1cn(-c2ccc(-c3ccc(CO)c(S(C)(=O)=O)c3)cc2Cl)c(-c2c(F)cccc2F)n1` [Example 159, 2-(1-(3-chloro-4′-(hydroxymethyl)-3′-(methylsulfonyl)biphenyl-4-yl)-2-(2,6-difluorophenyl)-1H-imidazol-4-yl)propan-2-ol], for which the IC50 or EC50 (potency, activation or inhibition) was under 1000 nM.
Still for that read-out and setting: the figure for `CC(C)(O)c1cn(-c2ccc(-c3ccc(C(C)(C)O)c(S(C)(=O)=O)c3)cc2Cl)c(-c2ccccc2C(F)(F)F)n1` [Example 163, 2-(1-(3-chloro-4′-(2-hydroxypropan-2-yl)-3′-(methylsulfonyl)biphenyl-4-yl)-2-(2-(trifluoromethyl)phenyl)-1H-imidazol-4-yl)propan-2-ol] is under 1000 nM.
Still for that read-out and setting: with `CC(C)(O)c1cn(-c2ccc(-c3ccc(C(C)(C)O)c(S(C)(=O)=O)c3)cc2Cl)c(-c2ccccc2Cl)n1` [Example 162, 2-(3′-chloro-4′-(2-(2-chlorophenyl)-4-(2-hydroxypropan-2-yl)-1H-imidazol-1-yl)-3-(methylsulfonyl)biphenyl-4-yl)propan-2-ol] the figure was under 1000 nM.
Still for that read-out and setting: the figure for `CC(C)(O)c1ccc(-c2ccc(-n3cc(C(C)(C)O)nc3-c3cccc(Cl)c3Cl)cc2)cc1` [Example 477, 2-(2-(2,3-dichlorophenyl)-1-(4′-(2-hydroxypropan-2-yl)biphenyl-4-yl)-1H-imidazol-4-yl)propan-2-ol] is 1000 to 10000 nM; for `CCNC(=O)c1cn(-c2ccc(-c3cccc(S(C)(=O)=O)c3)cc2)c(-c2c(Cl)cccc2Cl)n1` [Example 82, 2-(2,6-dichlorophenyl)-N-ethyl-1-(3′-(methylsulfonyl)biphenyl-4-yl)-1H-imidazole-4-carboxamide] it is under 1000 nM.
Consider `Cc1c(Cl)cccc1-c1nc(C(C)(C)O)cn1-c1ccc(-c2ccc(CO)c(S(C)(=O)=O)c2)cc1` [Example 101, 2-(2-(3-chloro-2-methylphenyl)-1-(4′-(hydroxymethyl)-3′-(methyl-sulfonyl)biphenyl-4-yl)-1H-imidazol-4-yl)propan-2-ol], for which the IC50 or EC50 (potency, activation or inhibition) is under 1000 nM.
For `CC(C)(O)c1cn(-c2ccc(-c3ccc4c(c3)S(=O)(=O)CC4O)cc2Cl)c(-c2c(F)cccc2Cl)n1` (centres unmarked) [Example 469, 6-{3-chloro-4-[2-(2-chloro-6-fluorophenyl)-4-(1-hydroxy-1-methylethyl)-1H-imidazol-1-yl]phenyl}-2,3-dihydro-1-benzo-thiophene-3-ol 1,1-dioxide], the IC50 or EC50 (potency, activation or inhibition) fell in the range of 1000 to 10000 nM.
For the compound `Cc1cc(-c2cccc(S(C)(=O)=O)c2)ccc1-c1nc(C(C)(C)O)cn1-c1c(Cl)cccc1Cl` [Example 197, 2-(1-(2,6-dichlorophenyl)-2-(3-methyl-3′-(methylsulfonyl)biphenyl-4-yl)-1H-imidazol-4-yl)propan-2-ol], the IC50 or EC50 (potency, activation or inhibition) is under 1000 nM.
For the compound `CCS(=O)(=O)c1cccc(-c2ccc(-n3cc(C(C)(C)O)nc3-c3c(F)cccc3F)cc2)c1` [Example 419, 2-{2-(2,6-difluorophenyl)-1-[3′-(ethylsulfonyl)biphenyl-4-yl]-1H-imidazol-4-yl}propan-2-ol], the IC50 or EC50 (potency, activation or inhibition) lay in the range of 1000 to 10000 nM.
Take `CC(C)(O)c1cn(-c2ccc(-c3cc(S(C)(=O)=O)ccc3Cl)cc2)c(-c2c(Cl)cccc2Cl)n1` [Example 107, 2-(1-(2′-chloro-5′-(methyl-sulfonyl)biphenyl-4-yl)-2-(2,6-dichlorophenyl)-1H-imidazol-4-yl)propan-2-ol]: the IC50 or EC50 (potency, activation or inhibition) is under 1000 nM.
For `Cc1cc(-c2cccc(S(C)(=O)=O)c2)ccc1-n1cc(C(C)(C)O)nc1-c1cccc(F)c1Cl` [Example 185, 2-(2-(2-chloro-3-fluorophenyl)-1-(3-methyl-3′-(methylsulfonyl)biphenyl-4-yl)-1H-imidazol-4-yl)propan-2-ol], the IC50 or EC50 (potency, activation or inhibition) was under 1000 nM.
As to `Cc1cc(-c2cccc(S(C)(=O)=O)c2)ccc1-n1cc(C(C)(C)O)nc1-c1cccc(Cl)c1Cl` [Example 179, 2-(2-(2,3-dichlorophenyl)-1-(3-methyl-3′-(methylsulfonyl)biphenyl-4-yl)-1H-imidazol-4-yl)propan-2-ol], the IC50 or EC50 (potency, activation or inhibition) is under 1000 nM.
Still for that read-out and setting: the figure for `CC(C)(O)c1cn(-c2ccc(-c3cccc(S(C)(=O)=O)c3)cc2Cl)c(-c2cccc3ccccc23)n1` [Example 30, 2-(1-(3-chloro-3′-(methyl-sulfonyl)biphenyl-4-yl)-2-(naphthalen-1-yl)-1H-imidazol-4-yl)propan-2-ol] is under 1000 nM; for `CCS(=O)(=O)c1cccc(-c2ccc(-n3cc(C(C)(C)O)nc3-c3cccc(Cl)c3C)c(F)c2)c1` [Example 119, 2-(2-(3-chloro-2-methylphenyl)-1-(3′-(ethylsulfonyl)-3-fluorobiphenyl-4-yl)-1H-imidazol-4-yl)propan-2-ol] it is under 1000 nM; for `CS(=O)(=O)c1cccc(-c2ccc(-n3cc(C(F)(F)F)nc3-c3ccccc3Cl)cc2)c1` [Example 358, 2-(2-chlorophenyl)-1-[3′-(methyl-sulfonyl)biphenyl-4-yl]-4-(trifluoro-methyl)-1H-imidazole] it is under 1000 nM.
